Laboratory results reported in patent US7750003B2, “Compounds-943” (AstraZeneca AB, priority 2006, dated 2010).

tested on: phosphorylation of Serine 473 in Akt in MDA-MB-468 human breast adenocarcinoma cells; assay: In vitro phospho-Ser473 Akt assay (Test (c)); format: cell-based; conditions: Homo sapiens, MDA-MB-468, 2 h, MDA-MB-468 cells, 2 hours incubation; read-out: Test (c): IC50 versus Serine 473 in Akt
Procedure: (c) In Vitro Phospho-Ser473 Akt Assay
This assay determines the ability of test compounds to inhibit phosphorylation of Serine 473 in Akt as assessed using Acumen Explorer technology (Acumen Bioscience Limited), a plate reader that can be used to rapidly quantitate features of images generated by laser-scanning.
A MDA-MB-468 human breast adenocarcinoma cell line (LGC Promochem, Teddington, Middlesex, UK, Catalogue No. HTB-132) was routinely maintained at 37° C. with 5% CO2 up to a confluency of 70-90% in DMEM containing 10% heat-inactivated FCS and 1% L-glutamine.
For the assay, the cells were detached from the culture flask using ‘Accutase’ (Innovative Cell Technologies Inc., San Diego, Calif., USA; Catalogue No. AT104) using standard tissue culture methods and resuspended in media to give 1.7×10^5 cells per mL. Aliquots (90 μl) were seeded into each of the inner 60 wells of a black Packard 96 well plate (PerkinElmer, Boston, Mass., USA; Catalogue No. 6005182) to give a density of 15000 cells per well. Aliquots (90 μl) of culture media were placed in the outer wells to prevent edge effects. The cells were incubated overnight at 37° C. with 5% CO2 to allow them to adhere.
On day 2, the cells were treated with test compounds and incubated for 2 hours at 37° C. with 5% CO2. Test compounds were prepared as 10 mM stock solutions in DMSO and serially diluted as required with growth media to give a range of concentrations that were 10-fold the required final test concentrations. Aliquots (10 μl) of each compound dilution were placed in a well (in triplicate) to give the final required concentrations. As a minimum response control, each plate contained wells having a final concentration of 100 μM LY294002 (Calbiochem, Beeston, UK, Catalogue No. 440202). As a maximum response control, wells contained 1% DMSO instead of test compound. Following incubation, the contents of the plates were fixed by treatment with a 1.6% aqueous formaldehyde solution (Sigma, Poole, Dorset, UK, Catalogue No. F1635) at room temperature for 1 hour.
All subsequent aspiration and wash steps were carried out using a Tecan 96 well plate washer (aspiration speed 10 mm/sec). The fixing solution was removed and the contents of the plates were washed with phosphate-buffered saline (PBS; 50 μl; Gibco, Catalogue No. 10010015). The contents of the plates were treated for 10 minutes at room temperature with an aliquot (50 μl) of a cell permeabilisation buffer consisting of a mixture of PBS and 0.5% Tween-20. The ‘permeabilisation’ buffer was removed and non-specific binding sites were blocked by treatment for 1 hour at room temperature of an aliquot (50 μl) of a blocking buffer consisting of 5% dried skimmed milk [‘Marvel’ (registered trade mark); Premier Beverages, Stafford, GB] in a mixture of PBS and 0.05% Tween-20. The ‘blocking’ buffer was removed and the cells were incubated for 1 hour at room temperature with rabbit anti phospho-Akt (Ser473) antibody solution (50 μl per well; Cell Signalling, Hitchin, Herts, U.K., Catalogue No 9277) that had been diluted 1:500 in ‘blocking’ buffer. Cells were washed three times in a mixture of PBS and 0.05% Tween-20. Subsequently, cells were incubated for 1 hour at room temperature with Alexafluor488 labelled goat anti-rabbit IgG (50 μl per well; Molecular Probes, Invitrogen Limited, Paisley, UK, Catalogue No. A11008) that had been diluted 1:500 in ‘blocking’ buffer. Cells were washed 3 times with a mixture of PBS and 0.05% Tween-20. An aliquot of PBS (50 μl) was added to each well and the plates were sealed with black plate sealers and the fluorescence signal was detected and analysed.
Fluorescence dose response data obtained with each compound were analysed and the degree of inhibition of Serine 473 in Akt was expressed as an IC50 value.

Row | IC50 | SMILES
1 | 720 nM | C[C@H]1COCCN1c1cc(CS(=O)(=O)C2CC2)nc(-c2ccc(NC(=O)NCCN(C)C)cc2)n1 [Example 57f, 1-[4-[4-(cyclopropylsulfonylmethyl)-6-[(3S)-3-methylmorpholin-4-yl]pyrimidin-2-yl]phenyl]-3-(2-dimethylaminoethyl)urea]
2 | 95 nM | C[C@H]1COCCN1c1cc(CS(=O)(=O)C2CC2)nc(-c2ccc(NC(=O)Nc3cnn(C)c3)cc2)n1 [Example 57g, 1-[4-[4-(cyclopropylsulfonylmethyl)-6-[(3S)-3-methylmorpholin-4-yl]pyrimidin-2-yl]phenyl]-3-(1-methylpyrazol-4-yl)urea]
3 | 66 nM | C[C@H]1COCCN1c1cc(C(C)(C)S(=O)(=O)C2CC2)nc(-c2ccc(NC(=O)NC3CCC3)cc2)n1 [Example 57h, 3-cyclobutyl-1-[4-[4-(2-cyclopropylsulfonylpropan-2-yl)-6-[(3S)-3-methylmorpholin-4-yl]pyrimidin-2-yl]phenyl]urea]
4 | 270 nM | C[C@H]1COCCN1c1cc(C(C)(C)S(=O)(=O)C2CC2)nc(-c2ccc(NC(=O)NCCO)cc2)n1 [Example 57i, 1-[4-[4-(2-cyclopropylsulfonylpropan-2-yl)-6-[(3S)-3-methylmorpholin-4-yl]pyrimidin-2-yl]phenyl]-3-(2-hydroxyethyl)urea]
5 | 70 nM | CCNC(=O)Nc1ccc(-c2nc(CS(=O)(=O)C3CC3)cc(N3CCOC[C@@H]3C)n2)cc1 [Example 57j, 1-[4-[4-(cyclopropylsulfonylmethyl)-6-[(3S)-3-methylmorpholin-4-yl]pyrimidin-2-yl]phenyl]-3-ethyl-urea]
6 | 340 nM | CCNC(=O)Nc1ccc(-c2nc(N3CCOC[C@@H]3C)cc(C(C)(C)S(=O)(=O)C3CC3)n2)cc1 [Example 57k, 1-[4-[4-(2-cyclopropylsulfonylpropan-2-yl)-6-[(3S)-3-methylmorpholin-4-yl]pyrimidin-2-yl]phenyl]-3-ethyl-urea]
7 | 88 nM | C[C@H]1COCCN1c1cc(CS(=O)(=O)C2CC2)nc(-c2ccc(NC(=O)NC3CCC3)cc2)n1 [Example 57l, 3-cyclobutyl-1-[4-[4-(cyclopropylsulfonylmethyl)-6-[(3S)-3-methylmorpholin-4-yl]pyrimidin-2-yl]phenyl]urea]
8 | 37 nM | C[C@H]1COCCN1c1cc(CS(=O)(=O)CCO)nc(-c2ccc(NC(=O)NC3CCC3)cc2)n1 [Example 59a, 3-cyclobutyl-1-[4-[4-(2-hydroxyethylsulfonylmethyl)-6-[(3S)-3-methylmorpholin-4-yl]pyrimidin-2-yl]phenyl]urea]
9 | 1000 nM | CC(C)S(=O)(=O)Cc1cc(N2CCOC[C@@H]2C)nc(-c2ccc(NC(=O)NC3CCC3)cc2)n1 [Example 60, 3-Cyclobutyl-1-[4-[4-[(3S)-3-methylmorpholin-4-yl]-6-(propan-2-ylsulfonylmethyl)pyrimidin-2-yl]phenyl]urea]
10 | 3300 nM | CCCNC(=O)Nc1ccc(-c2nc(CS(=O)(=O)C(C)C)cc(N3CCOC[C@@H]3C)n2)cc1 [Example 60a, 3-[4-[4-[(3S)-3-methylmorpholin-4-yl]-6-(propan-2-ylsulfonylmethyl)pyrimidin-2-yl]phenyl]-1-propyl-urea]
11 | 1800 nM | CC(C)CNC(=O)Nc1ccc(-c2nc(CS(=O)(=O)C(C)C)cc(N3CCOC[C@@H]3C)n2)cc1 [Example 60b, 1-[4-[4-[(3S)-3-methylmorpholin-4-yl]-6-(propan-2-ylsulfonylmethyl)pyrimidin-2-yl]phenyl]-3-(2-methylpropyl)urea]
12 | 770 nM | CC(C)S(=O)(=O)Cc1cc(N2CCOC[C@@H]2C)nc(-c2ccc(NC(=O)NCCCO)cc2)n1 [Example 60c, 3-(3-hydroxypropyl)-1-[4-[4-[(3S)-3-methylmorpholin-4-yl]-6-(propan-2-ylsulfonylmethyl)pyrimidin-2-yl]phenyl]urea]
13 | 590 nM | CC(C)S(=O)(=O)Cc1cc(N2CCOC[C@@H]2C)nc(-c2ccc(NC(=O)Nc3ccc(C(F)(F)F)cc3)cc2)n1 [Example 60d, 1-[4-[4-[(3S)-3-methylmorpholin-4-yl]-6-(propan-2-ylsulfonylmethyl)pyrimidin-2-yl]phenyl]-3-[4-(trifluoromethyl)phenyl]urea]
14 | 1300 nM | CC(C)S(=O)(=O)Cc1cc(N2CCOC[C@@H]2C)nc(-c2ccc(NC(=O)Nc3ccccn3)cc2)n1 [Example 60e, 1-[4-[4-[(3S)-3-methylmorpholin-4-yl]-6-(propan-2-ylsulfonylmethyl)pyrimidin-2-yl]phenyl]-3-pyridin-2-yl-urea]
15 | 870 nM | CC(C)NC(=O)Nc1ccc(-c2nc(CS(=O)(=O)C(C)C)cc(N3CCOC[C@@H]3C)n2)cc1 [Example 60f, 1-[4-[4-[(3S)-3-methylmorpholin-4-yl]-6-(propan-2-ylsulfonylmethyl)pyrimidin-2-yl]phenyl]-3-propan-2-yl-urea]
16 | 220 nM | CC(C)S(=O)(=O)Cc1cc(N2CCOC[C@@H]2C)nc(-c2ccc(NC(=O)NC(C)(C)CO)cc2)n1 [Example 60g, 3-(1-hydroxy-2-methyl-propan-2-yl)-1-[4-[4-[(3S)-3-methylmorpholin-4-yl]-6-(propan-2-ylsulfonylmethyl)pyrimidin-2-yl]phenyl]urea]
17 | 1900 nM | CC(C)S(=O)(=O)Cc1cc(N2CCOC[C@@H]2C)nc(-c2ccc(NC(=O)Nc3cnn(C)c3)cc2)n1 [Example 60h, 1-[4-[4-[(3S)-3-methylmorpholin-4-yl]-6-(propan-2-ylsulfonylmethyl)pyrimidin-2-yl]phenyl]-3-(1-methylpyrazol-4-yl)urea]
18 | 120 nM | CNC(=O)Nc1ccc(-c2nc(N3CCOC[C@@H]3C)cc(C(C)(C)S(=O)(=O)C(C)C)n2)cc1 [Example 60i, 3-methyl-1-[4-[4-[(3S)-3-methylmorpholin-4-yl]-6-(2-propan-2-ylsulfonylpropan-2-yl)pyrimidin-2-yl]phenyl]urea]
19 | 190 nM | CCNC(=O)Nc1ccc(-c2nc(N3CCOC[C@@H]3C)cc(C(C)(C)S(=O)(=O)C(C)C)n2)cc1 [Example 60j, 1-ethyl-3-[4-[4-[(3S)-3-methylmorpholin-4-yl]-6-(2-propan-2-ylsulfonylpropan-2-yl)pyrimidin-2-yl]phenyl]urea]
20 | 180 nM | CC(C)NC(=O)Nc1ccc(-c2nc(N3CCOC[C@@H]3C)cc(C(C)(C)S(=O)(=O)C(C)C)n2)cc1 [Example 60k, 1-[4-[4-[(3S)-3-methylmorpholin-4-yl]-6-(2-propan-2-ylsulfonyl-propan-2-yl)pyrimidin-2-yl]phenyl]-3-propan-2-yl-urea]
21 | 64 nM | CC(C)S(=O)(=O)C(C)(C)c1cc(N2CCOC[C@@H]2C)nc(-c2ccc(NC(=O)NC3CC3)cc2)n1 [Example 60l, 3-cyclopropyl-1-[4-[4-[(3S)-3-methylmorpholin-4-yl]-6-(2-propan-2-ylsulfonylpropan-2-yl)pyrimidin-2-yl]phenyl]urea]
22 | 59 nM | CC(C)S(=O)(=O)C(C)(C)c1cc(N2CCOC[C@@H]2C)nc(-c2ccc(NC(=O)NC3CCC3)cc2)n1 [Example 60m, 3-cyclobutyl-1-[4-[4-[(3S)-3-methylmorpholin-4-yl]-6-(2-propan-2-ylsulfonylpropan-2-yl)pyrimidin-2-yl]phenyl]urea]
23 | 150 nM | CC(C)S(=O)(=O)C(C)(C)c1cc(N2CCOC[C@@H]2C)nc(-c2ccc(NC(=O)NCCO)cc2)n1 [Example 60n, 3-(2-hydroxyethyl)-1-[4-[4-[(3S)-3-methylmorpholin-4-yl]-6-(2-propan-2-ylsulfonylpropan-2-yl)pyrimidin-2-yl]phenyl]urea]
